From a melting point compilation (Tetko et al.; mined from patent text by program, amines drawn as free bases though some values may be those of a salt)

First: O=C1CC2(C(=O)N1)C(=O)N(Cc1ccc(Br)cc1F)C(=O)c1ccccc12 (configuration not stated)
Second: CC(=O)Oc1cc(C)c(C)cc1C1(OC(C)=O)C(=O)c2ccccc2C1=O
The melting point of the first is lower: 112 to 114 °C for the first, 206 to 207 °C for the second.

Compared with `O=C(O)c1ccc([N+](=O)[O-])cc1C(F)(F)F`, `O=c1sc2cc(C(F)(F)F)cc([N+](=O)[O-])c2s1` is lower in melting point: 128 to 129 °C for the first, 110 to 111 °C for the second.

First: CN1C(=O)CCC2=C1CCc1c(F)cccc12
Second: Cc1cc(COc2cccc3c2CN(C2CCC(=O)NC2=O)C3=O)on1 (configuration not stated)
The melting point of the first is lower: 137 to 138 °C for the first, 278 to 280 °C for the second.

First: CC(C)(C)c1ccc(C2(C(N)=O)CC2)cc1
Second: CCC(=O)c1cccc(C(N)=O)c1
The melting point of the first is higher: 178 to 180 °C for the first, 121 to 122 °C for the second.

First: CS(=O)(=O)c1cc(OCc2ccccc2)cs1
Second: Cc1c(O)cccc1OCc1ccccc1
The melting point of the first is higher: 108 to 109 °C for the first, 58 to 59 °C for the second.

First: CCCc1c(OCCCCCCc2cc(O)c(O)cc2F)ccc(C(=O)O)c1O
Second: CCCCCCCCCc1ccc(C(=O)CC(=O)C(=O)O)cc1
The melting point of the first is higher: 110 to 111 °C for the first, 90 to 91 °C for the second.

First: CN(c1ccc(N)cc1)c1nc(=O)c2cccnc2s1
Second: Nc1nc(=O)[nH]c2cccnc12
The melting point of the first is lower: 250 °C for the first, > 300 °C for the second.

First: CC(=O)C(=Cc1cc(O)c(O)c([N+](=O)[O-])c1)c1ccc(C)cc1
Second: Cc1ccc(S(=O)(=O)NCc2ccc(C(=O)CBr)cc2)cc1
The melting point of the first is higher: 189 to 194 °C for the first, 116 to 117 °C for the second.

First: CCN(CC)CCNC(=O)c1c(O)c2cnc(-c3ccccc3)nc2n(CCOC)c1=O
Second: CCc1nn(CCOc2ccc(C=O)cc2)c(=O)c2ccccc12
The melting point of the first is higher: 115 to 117 °C for the first, 110 °C for the second.

First: O=C1NC(=O)C(CCCOc2ccc(F)cc2)S1 (configuration not stated)
Second: N=C(N)NCCCCOc1cccc2c1NC(=O)C(CC(=O)O)C2 (configuration not stated)
The melting point of the first is lower: 119 to 121 °C for the first, 207 to 210 °C for the second.

Compared with `CCC(=O)Nc1nnc2c3c(c(N4CCOCC4)nn12)CCCC3`, `CCc1nnc2c(NC3CCCCC3)nc3ccccc3n12` is higher in melting point: 164 to 166 °C for the first, 217 to 220 °C for the second.

First: Nc1ncc(Br)cc1O
Second: CC(C)c1cc(O)c(O)c(C(=O)O)c1
The melting point of the first is higher: 195 to 197 °C for the first, 151 to 152 °C for the second.

First: Cc1c(C(=O)OC(C)(C)C)nn(-c2ccc(Cl)cc2Cl)c1-c1ccc(Cl)cc1
Second: Cc1nnc(-c2ccc3occ(-c4ccc(C(N)=O)cc4)c3c2)o1
The melting point of the first is lower: 112 °C for the first, 250 to 251 °C for the second.

Compared with `COc1ccccc1N1CCN(CCCNC(=O)c2cccc3c(=O)c(C)c(-c4cccc5ccccc45)oc23)CC1`, `COc1ccc(-c2[nH]nc3c2C(=O)c2c(NC(=O)NNC(=O)c4ccccc4OC)cccc2-3)cc1` is higher in melting point: 134 to 138 °C for the first, 269 °C for the second.

First: O=C1Nc2ccccc2N2CCCC12 (configuration not stated)
Second: O=C(O)Cn1sc2ccccc2c1=O
The melting point of the first is lower: 169 to 172 °C for the first, 236 to 238 °C for the second.

Compared with `N#CC(C(=O)C(F)(F)F)c1cc(Cl)cc(Cl)c1Cl` (configuration not stated), `CC(C)(SC(F)(F)F)C(=O)C(Oc1ccc(Cl)cc1)n1cncn1` (configuration not stated) is lower in melting point: 160 to 163 °C for the first, 66 °C for the second.

First: COC1(C)COC(C)(OC)CO1 (configuration not stated)
Second: CC(=O)NC12CCC(CC1)C2(C)C
The melting point of the first is lower: 126 to 128 °C for the first, 133 to 134 °C for the second.

Compared with `Cc1cccc(C)c1N(CC(=O)NCCC(=O)O)C(=O)c1ccc(Cl)cc1`, `COC(=O)c1ccc(C(=O)NS(=O)(=O)c2ccc(CCNC(=O)c3ccccc3)cc2)cn1` is higher in melting point: 154 to 156 °C for the first, 228 to 230 °C for the second.

First: Cc1ccc(-c2cccc(/C=C/C(=O)Nc3ccc(CN4CCCCC4CCO)cc3)c2)cc1 (configuration not stated)
Second: CCOC(=O)Cc1ccc(NC(=O)C(COc2cccnc2)NS(=O)(=O)c2ccc(Cl)cc2)cc1 (racemic)
The melting point of the first is higher: 142 to 143 °C for the first, 136 to 139 °C for the second.

First: Cc1nn(-c2ccc(C(F)(F)F)cn2)cc1COc1ccc(OC(C)(C)C(=O)O)cc1
Second: Cn1ncnc1COCc1cccc(-n2cnc3cc(C(F)(F)F)ccc32)c1
The melting point of the first is lower: 106 to 107 °C for the first, 121 to 124 °C for the second.

First: COc1cc2ccnc(C(S)(C#N)CCC(=O)O)c2cc1OC (configuration not stated)
Second: COc1cc(NC(=O)C(C#N)=CNc2ccsc2)c(Cl)cc1Cl
The melting point of the first is lower: 169 to 170 °C for the first, > 250 °C for the second.

First: N#Cc1c(Cl)cccc1C=O
Second: CN1CCC(Oc2cccc(C(=O)Nc3cc(NC(=O)c4ccc(C#N)cc4)ccc3Cl)c2)CC1
The melting point of the first is lower: 138 to 140 °C for the first, 177 to 179 °C for the second.

First: CCOC(=O)C(=O)Cc1ncc([N+](=O)[O-])n1C
Second: CCn1cc([N+](=O)[O-])cn1
The melting point of the first is higher: 141 °C for the first, 54 to 55 °C for the second.

First: CS(=O)(=O)c1ccc(-c2nnsc2-c2ccccc2)cc1
Second: O=C(Cl)[C@H](Cc1ccccc1)NS(=O)(=O)c1ccc2ccccc2c1
The melting point of the first is higher: 154 to 155 °C for the first, 141 to 143 °C for the second.

First: OCCOc1cccc(OCc2ccccc2)c1
Second: N=C(NS(=O)(=O)C=Cc1ccccc1)c1ccccc1
The melting point of the first is lower: 40.5 to 43.5 °C for the first, 192 to 194 °C for the second.

Compared with `CCCCN1CCC(NS(=O)(=O)c2ccc(NC(C)=O)cc2)CC1`, `COC(=O)CCCc1cc2cc(Cl)ccc2n1S(=O)(=O)c1ccc2c(c1)CCN2C(C)=O` is lower in melting point: 174 to 175 °C for the first, 162 to 165 °C for the second.

Compared with `CC(=O)N(C(C)=O)c1c(C#N)cnn1-c1c(F)cc(F)c(F)c1F`, `NC(=O)N1C(=O)C(=C(OC(=O)c2cccnc2)c2cccs2)c2cc(F)c(Cl)cc21` is higher in melting point: 132 to 134 °C for the first, 201 to 202 °C for the second.

First: CCCc1ccc2nc(Cl)c(S(=O)(=O)Cl)n2n1
Second: CC(C)Cc1cccc(-c2nc(C(C)C)n(C)n2)n1
The melting point of the first is higher: 94.2 to 95.5 °C for the first, 80.1 °C for the second.

First: CSC(Oc1ccc2ncc(I)cc2c1)C(=O)NC(C)(C)C (configuration not stated)
Second: CC(=O)Nc1ccc(OC(C)=O)c(C)c1C
The melting point of the first is higher: 165 to 166 °C for the first, 155 to 156 °C for the second.

First: CN1CCN(C(=O)c2cc3c4ccccc4n(C)c3s2)CC1
Second: CCN1C(=O)Cc2cnc(N3CCN(Cc4ccccc4)CC3)nc21
The melting point of the first is higher: 219 to 220 °C for the first, 110 to 113 °C for the second.

`Sc1nc(-c2ccc(Cl)cc2)c(-c2cccs2)[nH]1` and `Nc1scc2c(-c3n[nH]c(=O)o3)nn(-c3ccccc3)c(=O)c12` cannot be ordered by melting point: 274 to 276 °C for the first, > 250 °C for the second.

First: O=C(O)CCCCCCCCCCn1nnnc1S
Second: CCCCCCCCCCC[C@@H](O)CC(=O)O
The melting point of the first is higher: 95 to 98 °C for the first, 70.6 to 71.4 °C for the second.

Compared with `CCOC(=O)C1Cc2c([nH]c3ccccc23)CN1C(=S)SC` (configuration not stated), `CCOC(=O)N1CCN(C(=CNc2cccc(OC)c2)C(=O)OC)CC1` is lower in melting point: 139 to 141 °C for the first, 120 to 122 °C for the second.

First: O=COC(CCl)(CC(Cl)(Cl)Cl)c1cc(Cl)cc(Cl)c1 (configuration not stated)
Second: CCc1nc(C(=O)c2cc(F)c(Cl)cc2Cl)c(C=O)n1C(CC)CC
The melting point of the first is higher: 115 to 117 °C for the first, 70 to 71 °C for the second.

Compared with `O=C(O)COc1nnc(C(Cl)Cl)s1`, `CCOc1nc(O)nn1CC` is lower in melting point: 114 °C for the first, 64 to 67 °C for the second.

Compared with `O=[N+]([O-])C(=Cc1ccco1)C1=NCCN1Cc1ccc(Cl)nc1`, `Cc1nnc(-c2sc(N3CCN(Cc4ccc(C(F)(F)F)cc4)C3=O)nc2C)[nH]1` is higher in melting point: 157 to 162 °C for the first, 273 to 274 °C for the second.

Compared with `COc1ncnc2c1ncn2[C@H](C)[C@](O)(Cn1cncn1)c1ccc(F)cc1F`, `CCOC(=O)c1cn2c(n1)c(OCC)nc1cc(Br)c(Br)cc12` is higher in melting point: 124 to 125 °C for the first, 247 to 249 °C for the second.

First: Cc1ccc(-c2cccc3ccccc23)n1CC[C@H]1C[C@H](O)CC(=O)O1 (relative stereo)
Second: CS(=O)(=O)C(=C1CN(C(c2ccccc2)c2ccccc2)C1)c1cccc(Cl)c1Cl
The melting point of the first is lower: 137 to 138 °C for the first, 201 °C for the second.

`COc1ccc2c(c1)C(O)(CCNC(C)=O)CCC2` (configuration not stated) showed a melting point of 106 to 109 °C.
